For test [1], the system named is Aspergillus flavus. In words: Antifungal activity against Aspergillus flavus at 1000 ug/mL after 72 hrs by agar diffusion assay. It counts as functional. Conditions: read-out: IZ. (In general: A growth-free zone around the sample is the usual read-out of agar diffusion tests.)
Test [2] relates to Staphylococcus aureus. In words: Antibacterial activity against Staphylococcus aureus by liquid dilution method. It counts as functional.
The subject of test [3] is Klebsiella pneumoniae. As to the kind of experiment: Antibacterial activity against Klebsiella pneumoniae by liquid dilution method. It counts as functional.
For test [4], the system named is Streptococcus pyogenes. In words: Antibacterial activity against Streptococcus pyogenes by liquid dilution method. It counts as functional.
The subject of test [5] is Bacillus subtilis. In words: Antibacterial activity against Bacillus subtilis at 1000 ug/mL after 72 hrs by agar diffusion assay. It counts as functional. The following applies: read-out: IZ.
Test [6] has as its system Candida albicans. In words: Antifungal activity against Candida albicans by liquid dilution method. It counts as functional.
For test [7], the system named is Aspergillus flavus. In words: Antifungal activity against Aspergillus flavus by liquid dilution method. It counts as functional.
Test [8] deals with Bacillus subtilis. In words: Antibacterial activity against Bacillus subtilis by liquid dilution method. It counts as functional.
For test [9], the system named is Salmonella typhimurium. As to the kind of experiment: Antibacterial activity against Salmonella Typhimurium by liquid dilution method. It counts as functional, Salmonella enterica subsp. enterica serovar Typhimurium. The following applies: Salmonella enterica.
Test [10] relates to Candida albicans. As to the kind of experiment: Antifungal activity against Candida albicans at 1000 ug/mL after 72 hrs by agar diffusion assay. It counts as functional. The following applies: read-out: IZ.
For test [11], the system named is Escherichia coli. As to the kind of experiment: Antibacterial activity against Escherichia coli by liquid dilution method. It counts as functional.
The subject of test [12] is Aspergillus niger. In words: Antifungal activity against Aspergillus niger at 1000 ug/mL after 72 hrs by agar diffusion assay. It counts as functional. The following applies: read-out: IZ.
For test [13], the system named is Aspergillus niger. As to the kind of experiment: Antifungal activity against Aspergillus niger by liquid dilution method. It counts as functional.
The subject of test [14] is Klebsiella pneumoniae. In words: Antibacterial activity against Klebsiella pneumoniae at 1000 ug/mL after 72 hrs by agar diffusion assay. It counts as functional. The following applies: read-out: IZ.
Test [15] concerns Salmonella typhimurium. In words: Antibacterial activity against Salmonella Typhimurium at 1000 ug/mL after 72 hrs by agar diffusion assay. It counts as functional, Salmonella enterica subsp. enterica serovar Typhimurium. Conditions: Salmonella enterica, read-out: IZ.
Test [16] concerns Escherichia coli. In words: Antibacterial activity against Escherichia coli at 1000 ug/mL after 72 hrs by agar diffusion assay. Conditions: read-out: IZ. It counts as functional.
Test [17] concerns Staphylococcus aureus. As to the kind of experiment: Antibacterial activity against Staphylococcus aureus at 1000 ug/mL after 72 hrs by agar diffusion assay. It counts as functional. Conditions: read-out: IZ.
In test [18] the test system is Streptococcus pyogenes. In words: Antibacterial activity against Streptococcus pyogenes at 1000 ug/mL after 72 hrs by agar diffusion assay. It counts as functional. Conditions: read-out: IZ.

In brackets after ≈: the same amount, converted by molar mass.

As to `O=c1oc2c(Br)cc(Br)cc2cc1-c1nc2ccccc2c2nc3c4nsnc4ccc3n12`, the zone of inhibition at 1000 µg/mL in the test with Aspergillus flavus [1] is 37 mm; in the test on Bacillus subtilis [5] it was 41 mm; in the test with Candida albicans [10] it was 32 mm; in the test with Aspergillus niger [12], 34 mm; with Klebsiella pneumoniae [14], 46 mm; with Salmonella typhimurium [15], 45 mm. For the same compound, the zone of inhibition at 1000 µg/mL was found to be 42 mm with Escherichia coli [16], 48 mm with Staphylococcus aureus [17] and 37 mm with Streptococcus pyogenes [18]. The MIC with Staphylococcus aureus [2] came to 5 µg/mL (≈ 8.63 µM); in the test on Klebsiella pneumoniae [3], 5 µg/mL (≈ 8.63 µM); in the test with Streptococcus pyogenes [4], 15 µg/mL (≈ 25.9 µM); in the test with Candida albicans [6], 40 µg/mL (≈ 69.1 µM); against Aspergillus flavus [7], 35 µg/mL (≈ 60.4 µM); with Bacillus subtilis [8] it was 10 µg/mL (≈ 17.3 µM). Besides, the MIC stood at 2.5 µg/mL (≈ 4.32 µM) against Salmonella typhimurium [9], 10 µg/mL (≈ 17.3 µM) with Escherichia coli [11] and 25 µg/mL (≈ 43.2 µM) in the test on Aspergillus niger [13].

As to `Cc1cccc2cc(-c3nc4ccccc4c4nc5c6nsnc6ccc5n34)c(=O)oc12`, the zone of inhibition at 1000 µg/mL in the test on Aspergillus flavus [1] came to 33 mm; with Bacillus subtilis [5], 26 mm; in the test with Candida albicans [10], 30 mm; in the test on Aspergillus niger [12], 28 mm; with Klebsiella pneumoniae [14], 32 mm; in the test on Salmonella typhimurium [15] it was 29 mm. The zone of inhibition at 1000 µg/mL in the test on Escherichia coli [16] amounted to 20 mm; in the test on Staphylococcus aureus [17], 29 mm; in the test with Streptococcus pyogenes [18] it was 24 mm. Moreover, the MIC is 40 µg/mL (≈ 91.9 µM) against Staphylococcus aureus [2]; 25 µg/mL (≈ 57.4 µM) with Klebsiella pneumoniae [3]; 45 µg/mL (≈ 103 µM) in the test with Streptococcus pyogenes [4]; 35 µg/mL (≈ 80.4 µM) in the test with Candida albicans [6]; 40 µg/mL (≈ 91.9 µM) in the test with Aspergillus flavus [7]; 50 µg/mL (≈ 115 µM) in the test with Bacillus subtilis [8]. For the same compound, the values for the minimum inhibitory concentration (MIC) against Salmonella typhimurium [9], with Escherichia coli [11] and in the test with Aspergillus niger [13] were 30 µg/mL (≈ 68.9 µM), 45 µg/mL (≈ 103 µM) and 50 µg/mL (≈ 115 µM), respectively.

Regarding `O=c1oc2ccc([N+](=O)[O-])cc2cc1-c1nc2ccccc2c2nc3c4nsnc4ccc3n12`, the zone of inhibition at 1000 µg/mL with Aspergillus flavus [1] stood at 44 mm; in the test with Bacillus subtilis [5], 30 mm; with Candida albicans [10], 38 mm; in the test on Aspergillus niger [12] it was 36 mm; with Klebsiella pneumoniae [14], 27 mm; in the test with Salmonella typhimurium [15] it was 29 mm. The zone of inhibition at 1000 µg/mL with Escherichia coli [16] worked out at 31 mm; with Staphylococcus aureus [17] it was 27 mm; with Streptococcus pyogenes [18], 29 mm. The MIC in the test with Staphylococcus aureus [2] turned out to be 35 µg/mL (≈ 75 µM); in the test with Klebsiella pneumoniae [3], 45 µg/mL (≈ 96.5 µM); against Streptococcus pyogenes [4], 30 µg/mL (≈ 64.3 µM); with Candida albicans [6], 30 µg/mL (≈ 64.3 µM); in the test on Aspergillus flavus [7], 25 µg/mL (≈ 53.6 µM); with Bacillus subtilis [8] it was 45 µg/mL (≈ 96.5 µM). The MIC with Salmonella typhimurium [9], in the test with Escherichia coli [11] and with Aspergillus niger [13] was 35 µg/mL (≈ 75 µM) each time.

For orientation: MIC means the lowest concentration found to suppress growth.
